Source: patent publication US6630165B2, “Methods for providing effective reboxetine therapy with once-a-day dosing” (priority 1999, dated 2003)

What was measured:
[1] = reboxetine elimination half-life and time to steady state; assay type: in vivo; conditions: about four elimination half lives after initiation of continuous intermittent dosing
Description: Generally, continuous dosing for a period equal to about four elimination half lives is required to obtain steady-state conditions. Accordingly, steady-state conditions are approached at approximately 52 hours following initiation of a continuous intermittent dosing regimen. Mean steady-state plasma reboxetine concentrations following dosing every 24 hours with 4 mg doses of reboxetine methanesulfonate in two different sustained release dosage forms, having T90 values of about 9 hours and about 18 hours, respectively, and following dosing every 12 hours with 2 mg doses of reboxetine methanesulfonate (total daily dose=4 mg) in an immediate release dosage form for a period of four days (96 hours) were simulated.

[2] = in vivo; cited from earlier work

In the case of CCOc1ccccc1OC(c1ccccc1)C1CNCCO1 (stereo not drawn) [Reboxetine, 2-[α(2-ethoxyphenoxy)benzyl]morpholine], the “time at which steady-state conditions are approached” value [1] is given as “approximately 52 hours” and the “elimination half-life (t1/2)” value [2] is given as “about 13 hours”.
